According to patent US20040259948A1, “Reciprocal regulation of inflammation and lipid metabolism by liver X receptors” (priority 2003, published 2004):

Tests used:
[1] = system: Thioglycolate-elicited peritoneal macrophages; assay: Macrophage response to E. coli infection: iNOS mRNA and NO production; assay type: cell-based, murine; conditions: 18 h, pretreated with 1 μM ligand
Procedure: Thioglycolate-elicited peritoneal macrophages were infected in vitro with Escherichia coli. After 18 hours, expression of inducible nitric oxide synthase (iNOS) mRNA and nitric oxide (NO) production were assessed. […] Cells were then infected with E. coli (A, B) or treated with 100 ng/ml LPS(C, D, E) as indicated. After 18 h, NO production was determined using a colorimetric assay (A, D), or mRNA levels were determined using real-time quantitative PCR assays (B, C, E).
Thioglycolate-elicited peritoneal macrophages were cultured in RPMI containing 10% fetal bovine serum (FBS). […] For ligand treatments, cells were in cultured medium supplemented with 5% lipoprotein-deficient serum (LPDS) and ligands for 18 h before stimulation. […] NO production was determined spectrophotometrically (Castrillo, A. et al. 2000 Mol Cell Biol 20:1692-1698).
Total RNA was extracted using Trizol reagent (Life Technologies, Inc.). […] Real-time quantitative PCR (TaqMan) analysis was performed using an Applied Biosystems 7700 sequence detector.

LXRβ/RXRα = target: T1, LXRβ/RXRα (Homo sapiens, UniProt P55055); assay: Luciferase reporter transfection in RAW 264.7 cells, LXRβ/RXRα; assay type: cell-based; conditions: 2 μM
T1 construct: expressed in transfected cells; host or cells: RAW 264.7
T1 sequence (P55055 1-460): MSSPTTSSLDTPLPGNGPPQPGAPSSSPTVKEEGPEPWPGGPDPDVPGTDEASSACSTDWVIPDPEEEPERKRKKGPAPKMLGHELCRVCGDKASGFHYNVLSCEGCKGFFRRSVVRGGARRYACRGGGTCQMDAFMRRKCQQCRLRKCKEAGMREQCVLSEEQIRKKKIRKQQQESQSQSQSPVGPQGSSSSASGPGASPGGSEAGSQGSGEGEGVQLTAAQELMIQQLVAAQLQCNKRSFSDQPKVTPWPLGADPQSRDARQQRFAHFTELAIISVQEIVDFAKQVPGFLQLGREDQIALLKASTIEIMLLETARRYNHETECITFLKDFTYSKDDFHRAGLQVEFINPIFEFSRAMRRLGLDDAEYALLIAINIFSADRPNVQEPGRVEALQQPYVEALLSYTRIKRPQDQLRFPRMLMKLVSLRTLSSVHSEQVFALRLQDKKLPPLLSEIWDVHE
T1 sequence (P19793 1-462 partner): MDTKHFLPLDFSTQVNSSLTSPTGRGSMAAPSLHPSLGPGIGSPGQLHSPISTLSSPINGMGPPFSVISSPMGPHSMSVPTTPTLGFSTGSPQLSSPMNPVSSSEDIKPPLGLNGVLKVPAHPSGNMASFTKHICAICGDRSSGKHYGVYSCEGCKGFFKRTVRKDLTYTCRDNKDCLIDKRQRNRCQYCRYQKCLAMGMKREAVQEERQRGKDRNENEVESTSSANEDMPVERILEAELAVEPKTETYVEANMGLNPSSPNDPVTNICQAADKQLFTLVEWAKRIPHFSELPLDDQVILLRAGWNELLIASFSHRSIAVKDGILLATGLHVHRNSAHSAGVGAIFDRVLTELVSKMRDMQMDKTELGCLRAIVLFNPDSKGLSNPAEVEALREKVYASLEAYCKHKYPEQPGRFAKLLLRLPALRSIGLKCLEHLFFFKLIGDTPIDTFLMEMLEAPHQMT
Procedure: We next investigated the mechanism by which LXR inhibits iNOS and COX-2 expression. […] RAW 264.7 cells were transfected with expression vectors for either LXRα/RXRα or LXRβ/RXRα along with luciferase reporter constructs. The LXR agonist inhibited expression of both iNOS and COX-2 gene promoters in a receptor-dependent fashion (FIG. 4 A and B). […] E, A dominant-negative IKK expression vector (IKK DN) blocks LXR-dependent repression of the COX-2 promoter. Transfected cells were treated with DMSO (ctrl), GW3965 (GW), LPS, or GW3965 and LPS. […] RAW 264.7 cells were transiently transfected with expression vectors for LXRα/RXRα, LXRβ/RXRα or dominant-negative I kappa B kinase (IKK) along with iNOS (A), COX-2 (B, E, F), NF-κB (C), AP-1 (D) or COX-2/NF-κB mutant (F) luciferase reporters. […] As activation of iNOS and COX-2 gene promoters by LPS is known to depend on interactions between AP-1 and NF-κB transcription factors, the effect of LXR on minimal promoters containing binding sites for these factors was evaluated. […] Moreover, the inhibitory effect of LXR on the COX-2 promoter was lost when NF-κB activity was blocked by transfection of a dominant-negative IKK or when binding sites for NF-κB were mutated (FIGS. 4E and F). These observations indicate that inhibition of inflammatory gene expression by LXR ligands involves antagonism of NF-κB signaling.
Reagents and plasmids. […] Oxysterols, LDL and ox-LDL were from Sigma and Intracell, respectively. LPS from Salmonella typhimurium was from Sigma. Expression plasmids for LXRα, LXRβ and IKK-DN (Castrillo, A. et al. 2001 J Biol Chem 276:15854-15860; Laffitte, B. A. et al. 2001 Mol Cell Biol 21:7558-7568), and reporter plasmids for NOS-2, (NFκB)3-LUC, (AP-1)4-LUC and COX-2 have been described (Callejas, N. A. et al. 2000 Gastroenterology 119:493-501).
Cell culture and transfections. Thioglycolate-elicited peritoneal macrophages were cultured in RPMI containing 10% fetal bovine serum (FBS). […] NO production was determined spectrophotometrically (Castrillo, A. et al. 2000 Mol Cell Biol 20:1692-1698).

[2] = system: human smooth muscle cells; assay: TNF-induced gene expression in human smooth muscle cells; assay type: cell-based; conditions: TNF 6 hours; real time qPCR
Procedure: (§1) Activation of LXR by synthetic ligands inhibits inflammatory gene expression in multiple human cell types (FIG. 7A-C). TNFα plays a role in the induction of inflammatory mediators in during inflammation. Cells were treated for 6 hours with TNF as indicated and gene expression was measured by real time qPCR.

[3] = system: human aortic endothelial cells; assay: TNF-induced gene expression in human aortic endothelial cells; assay type: cell-based; conditions: TNF 6 hours; real time qPCR
Procedure: as §1

## O=C(O)Cc1cccc(OCCCN(Cc2cccc(C(F)(F)F)c2Cl)CC(c2ccccc2)c2ccccc2)c1 [GW3965]
[1]; colorimetric assay
  iNOS activity (NO / nitrite production): reduced
[1]; real-time quantitative PCR
  iNOS mRNA: significantly reduced
LXRβ/RXRα
  induction of the COX-2 promoter by LPS (luciferase reporter): inhibits induction
  induction of the iNOS promoter by LPS (luciferase reporter): inhibits induction
LXRβ/RXRα; LPS
  luciferase reporter containing multiple NF-κB binding sites: inhibits expression
[2]
  TNF-induced gene expression: inhibited
[3]
  TNF-induced gene expression: inhibited
